# Active and inactive are the calls of the source.
# How the values were obtained:
# [1] = A small molecule screen for inhibitors of the PhoP region in Salmonella typhi (3) using purified and synthesized compounds. [Related pubchem assays (depositor defined):AID1850, AID1864, AID1985, AID2252, AID2384, AID2612, AID2811, AID449743, AID463179]; assay type: functional
# [2] = target: Cyclin-dependent kinase 5/CDK5 activator 1 (Homo sapiens, UniProt Q00535); test: blockade of human CDK5 activity – biochemical, cherry-picked samples, set 2, dose response (AID 504545)
# [3] = target: T1, Fructose-bisphosphate aldolase (Mycobacterium tuberculosis, UniProt P9WQA3); test: Fluorescence-based biochemical high throughput dose response assay for inhibitors of the fructose-bisphosphate aldolase (FBA) of M. tuberculosis.; assay type: functional
# T1 sequence (P9WQA3 whole entry): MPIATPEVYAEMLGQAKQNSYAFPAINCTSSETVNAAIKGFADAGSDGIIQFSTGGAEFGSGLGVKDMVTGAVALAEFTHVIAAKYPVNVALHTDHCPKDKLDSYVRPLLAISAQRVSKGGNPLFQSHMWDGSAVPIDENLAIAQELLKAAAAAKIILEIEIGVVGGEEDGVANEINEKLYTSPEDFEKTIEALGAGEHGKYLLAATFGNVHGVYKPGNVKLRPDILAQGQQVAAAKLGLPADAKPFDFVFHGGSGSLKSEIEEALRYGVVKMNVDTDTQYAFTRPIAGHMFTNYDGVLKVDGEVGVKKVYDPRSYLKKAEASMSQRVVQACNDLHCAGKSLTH
# Wee1-like protein kinase = Wee1-like protein kinase (Homo sapiens, UniProt P30291); test: HeLa cell cycle G2/M accumulation – FACS, mechanism study for Wee1 degradation inhibitor project, late-stage follow-up, panel member Wee1 Degradation (AID 2088)
# [4] = target: G2/mitotic-specific cyclin-B1 (Homo sapiens, UniProt P14635); test: HeLa cell cycle G2/M accumulation – FACS, mechanism study for Wee1 degradation inhibitor project, late-stage follow-up, panel member Cyclin B Degradation (AID 2088)
# [5] = target: T2, Tyrosine-protein phosphatase non-receptor type 7 (Homo sapiens, UniProt P35236); assay type: functional
# T2 sequence (P35236 whole entry): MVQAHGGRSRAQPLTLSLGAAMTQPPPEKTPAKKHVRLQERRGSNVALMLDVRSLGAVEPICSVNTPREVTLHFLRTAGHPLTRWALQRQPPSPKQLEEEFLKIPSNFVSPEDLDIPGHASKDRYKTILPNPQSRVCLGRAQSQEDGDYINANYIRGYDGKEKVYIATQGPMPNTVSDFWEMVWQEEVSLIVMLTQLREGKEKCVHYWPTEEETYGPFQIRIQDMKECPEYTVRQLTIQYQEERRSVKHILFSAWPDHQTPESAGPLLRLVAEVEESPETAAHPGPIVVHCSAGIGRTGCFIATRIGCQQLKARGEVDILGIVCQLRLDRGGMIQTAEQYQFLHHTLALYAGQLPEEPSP
# [6] = target: T3, RNA-binding protein pos-1 (Caenorhabditis elegans, UniProt G5EF15); test: disruptors of C. elegans POS-1 RNA interaction – biochemical, fluorescence polarization, dose response (AID 1964);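 further: purified POS-1 fused to maltose binding protein made in E. coli; potency of compounds blocking POS-1 binding to fluorescent RNA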
# T3 sequence (G5EF15 whole entry): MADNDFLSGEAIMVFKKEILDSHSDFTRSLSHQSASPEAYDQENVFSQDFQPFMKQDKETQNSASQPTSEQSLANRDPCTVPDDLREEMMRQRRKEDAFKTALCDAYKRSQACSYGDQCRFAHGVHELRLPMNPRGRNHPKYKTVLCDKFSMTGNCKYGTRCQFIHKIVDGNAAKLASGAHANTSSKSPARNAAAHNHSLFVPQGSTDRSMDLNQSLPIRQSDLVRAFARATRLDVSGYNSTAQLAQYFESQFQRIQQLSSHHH
# [7] = target: Glyceraldehyde-3-phosphate dehydrogenase (Homo sapiens, UniProt P04406)
# [8] = target: T4, Zinc finger protein mex-5 (Caenorhabditis elegans, UniProt Q9XUB2); test: potency of MEX-5 RNA-binding blockers – biochemical, C. elegans, fluorescence polarization, dose response (AID 1960)
# T4 sequence (Q9XUB2 whole entry): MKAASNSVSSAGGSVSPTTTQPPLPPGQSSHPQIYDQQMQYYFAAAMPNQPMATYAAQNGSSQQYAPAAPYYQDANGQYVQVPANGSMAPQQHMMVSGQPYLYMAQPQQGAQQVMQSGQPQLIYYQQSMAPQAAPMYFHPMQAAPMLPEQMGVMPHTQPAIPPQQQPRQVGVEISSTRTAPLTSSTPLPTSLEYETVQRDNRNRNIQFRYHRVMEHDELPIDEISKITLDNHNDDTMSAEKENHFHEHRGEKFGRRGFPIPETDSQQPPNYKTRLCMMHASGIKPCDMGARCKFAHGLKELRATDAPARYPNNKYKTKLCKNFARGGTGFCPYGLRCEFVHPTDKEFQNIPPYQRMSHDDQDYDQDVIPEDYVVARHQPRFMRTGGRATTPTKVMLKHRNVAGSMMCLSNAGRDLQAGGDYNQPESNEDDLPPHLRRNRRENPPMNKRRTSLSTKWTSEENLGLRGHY
# [9] = target: Heat shock cognate 71 kDa protein (Homo sapiens, UniProt P11142); test: In Vitro Hsc70 Dose Response Fluorescence Polarization Assay. [Related pubchem assays: 1072 ]
# [10] = target: Heat shock 70 kDa protein 1A (Homo sapiens, UniProt P0DMV8); test: inhibition of Hsp70 binding activity – biochemical, fluorescence polarization, SAR follow-up (AID 1072)
# [11] = target: T5, Dual specificity protein phosphatase 6 (Rattus norvegicus, UniProt Q64346)
# T5 sequence (Q64346 whole entry): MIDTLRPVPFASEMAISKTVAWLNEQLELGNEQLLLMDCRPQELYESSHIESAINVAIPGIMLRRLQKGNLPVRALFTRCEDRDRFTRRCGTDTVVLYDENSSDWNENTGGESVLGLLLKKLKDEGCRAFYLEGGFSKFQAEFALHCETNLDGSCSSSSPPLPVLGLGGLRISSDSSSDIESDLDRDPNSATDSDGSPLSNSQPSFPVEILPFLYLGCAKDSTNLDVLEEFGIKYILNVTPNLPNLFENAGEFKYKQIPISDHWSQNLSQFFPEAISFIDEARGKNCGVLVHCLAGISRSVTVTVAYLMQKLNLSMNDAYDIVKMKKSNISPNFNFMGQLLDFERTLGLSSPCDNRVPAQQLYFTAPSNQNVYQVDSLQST
# HeLa = test: viability loss in HeLa cells – cell-based, 24 h, cherry-picked samples, cytotoxicity control, dose response (AID 504726); assay type: functional; conditions: Homo sapiens;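 further: potency for cytotoxicity as loss of luminescence signal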
# ORF 73 = ORF 73 (Human herpesvirus 8, UniProt O40947); test: KSHV LANA DNA-binding disruption – biochemical, fluorescence polarization, cherry-picked samples, dose response (AID 504725); parameters: species or system Human gammaherpesvirus 8;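 further: fluorescence polarization of a labeled DNA duplex reporting LANA DNA binding; potency is for inhibitors that block LANA binding to the DNA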
# Cysteine protease ATG4B = target: T6, Cysteine protease ATG4B (Homo sapiens, UniProt Q9Y4P1); assay type: functional;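 further: Fluorescence-based dose-response confirmation assay measuring inhibition of ATG4B activity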
# T6 sequence (Q9Y4P1 whole entry): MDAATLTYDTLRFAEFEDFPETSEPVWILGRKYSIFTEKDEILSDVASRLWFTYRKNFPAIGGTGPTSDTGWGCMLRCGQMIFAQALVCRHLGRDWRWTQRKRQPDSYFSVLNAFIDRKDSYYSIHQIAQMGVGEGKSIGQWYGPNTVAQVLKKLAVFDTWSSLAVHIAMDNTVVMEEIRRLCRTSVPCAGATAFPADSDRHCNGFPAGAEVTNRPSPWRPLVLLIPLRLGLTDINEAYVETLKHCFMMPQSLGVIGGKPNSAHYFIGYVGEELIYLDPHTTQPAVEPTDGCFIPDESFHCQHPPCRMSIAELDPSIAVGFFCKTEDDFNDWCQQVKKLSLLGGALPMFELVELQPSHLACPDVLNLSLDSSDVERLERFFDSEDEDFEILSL
# Phospholipase A2 = Phospholipase A2 (Homo sapiens, UniProt P04054); assay type: functional;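 further: confirmatory dose-response counterscreen on phospholipase A2, testing hits that came from an ultra-high-throughput screen for ATG4B inhibitors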
# Vero = test: viability of Vero cells under compound – cytotoxicity control for flavivirus capping enzyme inhibitors (AID 588742); assay type: functional; conditions: Chlorocebus sabaeus
# [12] = target: T5, Dual specificity protein phosphatase 6; assay type: functional
# [13] = target: T7, Alkaline phosphatase, tissue-nonspecific isozyme (Homo sapiens, UniProt P05186)
# T7 sequence (P05186 whole entry): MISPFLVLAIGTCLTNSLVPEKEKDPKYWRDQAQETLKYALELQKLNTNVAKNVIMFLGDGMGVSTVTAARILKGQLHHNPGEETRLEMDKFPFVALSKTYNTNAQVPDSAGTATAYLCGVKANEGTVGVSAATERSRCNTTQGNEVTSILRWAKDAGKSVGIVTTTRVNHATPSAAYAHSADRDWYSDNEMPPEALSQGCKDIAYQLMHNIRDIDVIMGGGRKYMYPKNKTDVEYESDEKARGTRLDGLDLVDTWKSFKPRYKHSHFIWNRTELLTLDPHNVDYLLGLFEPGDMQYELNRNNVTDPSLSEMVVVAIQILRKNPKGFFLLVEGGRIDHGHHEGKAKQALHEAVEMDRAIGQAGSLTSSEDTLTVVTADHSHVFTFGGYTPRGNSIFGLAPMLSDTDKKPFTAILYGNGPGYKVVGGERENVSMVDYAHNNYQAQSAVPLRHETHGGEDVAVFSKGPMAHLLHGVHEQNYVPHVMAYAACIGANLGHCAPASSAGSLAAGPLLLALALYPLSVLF
# [14] = target: T8, Calpain-2 catalytic subunit (Sus scrofa, UniProt P43367); test: m-calpain protease blockers, concentration series – biochemical, fluorogenic peptide substrate, dose response (AID 1420); assay type: functional
# T8 sequence (P43367 whole entry): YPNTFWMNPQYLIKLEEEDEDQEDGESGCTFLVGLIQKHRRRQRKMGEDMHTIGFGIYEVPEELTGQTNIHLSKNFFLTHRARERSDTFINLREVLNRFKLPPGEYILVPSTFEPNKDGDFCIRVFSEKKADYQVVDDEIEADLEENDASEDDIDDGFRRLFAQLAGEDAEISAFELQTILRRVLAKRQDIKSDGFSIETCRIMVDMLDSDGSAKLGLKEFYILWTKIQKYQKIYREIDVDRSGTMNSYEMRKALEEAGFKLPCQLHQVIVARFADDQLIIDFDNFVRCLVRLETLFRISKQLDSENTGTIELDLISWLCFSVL
# Hexokinase HKDC1 = Hexokinase HKDC1 (Homo sapiens, UniProt Q2TB90); test: inhibition of HKDC1 glucose phosphorylation – biochemical, W721R variant, dose response (AID 504729); assay type: functional
# Prothrombin = Prothrombin (Homo sapiens, UniProt P00734); test: Thrombin 1536 HTS Dose Response Confirmation. [Related pubchem assays: 1046 (Thrombin 1536 HTS; hits were confirmed in this assay)]; assay type: functional
# [15] = target: Neurotensin receptor type 1 (Homo sapiens, UniProt P30989); assay type: functional;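 further: Image-based confirmatory dose-response assay measuring agonist activity at NTR1; NTR1-expressing U2OS osteosarcoma cells imaged for beta-arrestin GFP spot formation; agonist potency where compounds increase beta-arrestin recruitment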
# [16] = target: Photoreceptor-specific nuclear receptor (Homo sapiens, UniProt Q9Y5X4); assay type: functional;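 further: potency for compounds that break the NR2E3 corepressor complex and count as activators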
# [17] = target: Peroxisome proliferator-activated receptor gamma/Nuclear receptor coactivator 1 (Homo sapiens, UniProt P37231); test: TR-FRET dose response biochemical High Throughput Screening assay for agonists of the steroid receptor coactivator 1 (SRC-1) recruitment by the peroxisome proliferator-activated receptor gamma (PPAR gamma): non-selective agonists. [Related pubchem assays (depositor defined):AID1300, AID1808, AID504735, AID631]; assay type: protein assay
# [18] = target: Peroxisome proliferator-activated receptor gamma/Nuclear receptor coactivator 3 (Homo sapiens, UniProt P37231); test: TR-FRET dose response biochemical High Throughput Screening assay for agonists of the steroid receptor coactivator 3 (SRC-3) recruitment by the peroxisome proliferator-activated receptor gamma (PPAR gamma): non-selective agonists. [Related pubchem assays: 1301 (Confirmation screen.), 1048 (Primary screen.)]; assay type: functional
# [19] = target: Peroxisome proliferator-activated receptor gamma/Nuclear receptor coactivator 2 (Homo sapiens, UniProt P37231); test: TR-FRET dose response biochemical High Throughput Screening assay for agonists of the steroid receptor coactivator 2 (SRC-2) recruitment by the peroxisome proliferator-activated receptor gamma (PPAR gamma): non-selective agonists. [Related pubchem assays: 1297, 1032 ]; assay type: functional
# [20] = target: Peroxisome proliferator-activated receptor gamma/Nuclear receptor corepressor 2 (Homo sapiens, UniProt P37231+Q9Y618); assay type: functional
# Cytochrome P450 2C19 = Cytochrome P450 2C19 (Homo sapiens, UniProt P33261); test: Cytochrome panel assay with activity outcomes. Panel member name: p450-cyp2c19 Compounds with AC50 equal or less than 10 uM are considered active; assay type: functional; conditions: read-out: AC50
# Chain of Peroxisome proliferator-activated receptor gamma/Nuclear receptor coactivator 1 (P37231 whole entry): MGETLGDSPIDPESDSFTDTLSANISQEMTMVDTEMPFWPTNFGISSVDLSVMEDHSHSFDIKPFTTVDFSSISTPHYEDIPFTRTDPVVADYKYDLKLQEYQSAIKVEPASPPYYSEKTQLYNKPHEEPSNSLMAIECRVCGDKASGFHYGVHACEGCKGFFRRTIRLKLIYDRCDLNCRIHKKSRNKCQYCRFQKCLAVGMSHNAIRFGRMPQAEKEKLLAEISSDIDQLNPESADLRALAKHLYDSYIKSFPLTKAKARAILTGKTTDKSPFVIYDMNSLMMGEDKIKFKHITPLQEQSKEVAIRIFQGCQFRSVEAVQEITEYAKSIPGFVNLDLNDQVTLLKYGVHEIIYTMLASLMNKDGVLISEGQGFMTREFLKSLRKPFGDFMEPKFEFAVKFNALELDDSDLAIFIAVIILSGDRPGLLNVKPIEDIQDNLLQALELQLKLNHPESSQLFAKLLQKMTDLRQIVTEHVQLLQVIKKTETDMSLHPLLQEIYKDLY
# Chain of Peroxisome proliferator-activated receptor gamma/Nuclear receptor coactivator 1 (Q15788 whole entry, further chain): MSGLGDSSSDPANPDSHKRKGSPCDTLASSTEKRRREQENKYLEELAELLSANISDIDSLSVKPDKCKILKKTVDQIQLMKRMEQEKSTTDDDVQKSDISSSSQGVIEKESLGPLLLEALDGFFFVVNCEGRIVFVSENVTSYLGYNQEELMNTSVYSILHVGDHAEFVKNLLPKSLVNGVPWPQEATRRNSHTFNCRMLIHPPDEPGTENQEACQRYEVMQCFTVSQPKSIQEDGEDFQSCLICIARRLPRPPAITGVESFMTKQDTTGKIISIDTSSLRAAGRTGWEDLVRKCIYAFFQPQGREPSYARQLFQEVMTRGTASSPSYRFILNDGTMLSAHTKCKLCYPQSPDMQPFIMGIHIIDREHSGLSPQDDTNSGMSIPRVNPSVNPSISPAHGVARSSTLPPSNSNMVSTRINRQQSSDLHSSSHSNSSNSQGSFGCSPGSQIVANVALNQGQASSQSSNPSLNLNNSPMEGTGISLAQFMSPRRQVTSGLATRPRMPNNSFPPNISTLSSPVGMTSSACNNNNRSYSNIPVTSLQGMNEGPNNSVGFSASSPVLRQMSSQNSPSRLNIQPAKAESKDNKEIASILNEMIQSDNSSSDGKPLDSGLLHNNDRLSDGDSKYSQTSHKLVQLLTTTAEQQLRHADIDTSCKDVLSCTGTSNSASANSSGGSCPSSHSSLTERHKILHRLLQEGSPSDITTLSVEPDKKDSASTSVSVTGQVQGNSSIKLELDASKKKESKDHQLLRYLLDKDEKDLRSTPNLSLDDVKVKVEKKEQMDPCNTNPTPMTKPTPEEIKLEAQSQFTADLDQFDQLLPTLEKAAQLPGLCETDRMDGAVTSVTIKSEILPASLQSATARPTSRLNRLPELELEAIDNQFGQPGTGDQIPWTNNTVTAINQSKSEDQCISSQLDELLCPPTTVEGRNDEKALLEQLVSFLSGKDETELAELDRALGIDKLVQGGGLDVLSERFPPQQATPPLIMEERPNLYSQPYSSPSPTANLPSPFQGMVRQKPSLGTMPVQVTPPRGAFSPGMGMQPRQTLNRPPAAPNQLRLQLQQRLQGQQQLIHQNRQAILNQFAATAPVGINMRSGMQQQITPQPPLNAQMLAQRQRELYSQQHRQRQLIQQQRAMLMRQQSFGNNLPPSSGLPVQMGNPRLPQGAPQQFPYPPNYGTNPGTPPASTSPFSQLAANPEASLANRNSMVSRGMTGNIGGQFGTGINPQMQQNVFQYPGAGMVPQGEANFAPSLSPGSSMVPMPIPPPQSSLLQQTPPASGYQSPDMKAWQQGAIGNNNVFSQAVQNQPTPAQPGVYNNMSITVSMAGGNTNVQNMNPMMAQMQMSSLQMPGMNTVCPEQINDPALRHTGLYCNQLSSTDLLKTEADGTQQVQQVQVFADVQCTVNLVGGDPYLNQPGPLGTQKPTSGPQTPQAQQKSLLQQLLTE
# Chain of Peroxisome proliferator-activated receptor gamma/Nuclear receptor corepressor 2 (P37231 whole entry): as the sequence (P37231 whole entry) above
# Chain of Peroxisome proliferator-activated receptor gamma/Nuclear receptor corepressor 2 (Q9Y618 whole entry): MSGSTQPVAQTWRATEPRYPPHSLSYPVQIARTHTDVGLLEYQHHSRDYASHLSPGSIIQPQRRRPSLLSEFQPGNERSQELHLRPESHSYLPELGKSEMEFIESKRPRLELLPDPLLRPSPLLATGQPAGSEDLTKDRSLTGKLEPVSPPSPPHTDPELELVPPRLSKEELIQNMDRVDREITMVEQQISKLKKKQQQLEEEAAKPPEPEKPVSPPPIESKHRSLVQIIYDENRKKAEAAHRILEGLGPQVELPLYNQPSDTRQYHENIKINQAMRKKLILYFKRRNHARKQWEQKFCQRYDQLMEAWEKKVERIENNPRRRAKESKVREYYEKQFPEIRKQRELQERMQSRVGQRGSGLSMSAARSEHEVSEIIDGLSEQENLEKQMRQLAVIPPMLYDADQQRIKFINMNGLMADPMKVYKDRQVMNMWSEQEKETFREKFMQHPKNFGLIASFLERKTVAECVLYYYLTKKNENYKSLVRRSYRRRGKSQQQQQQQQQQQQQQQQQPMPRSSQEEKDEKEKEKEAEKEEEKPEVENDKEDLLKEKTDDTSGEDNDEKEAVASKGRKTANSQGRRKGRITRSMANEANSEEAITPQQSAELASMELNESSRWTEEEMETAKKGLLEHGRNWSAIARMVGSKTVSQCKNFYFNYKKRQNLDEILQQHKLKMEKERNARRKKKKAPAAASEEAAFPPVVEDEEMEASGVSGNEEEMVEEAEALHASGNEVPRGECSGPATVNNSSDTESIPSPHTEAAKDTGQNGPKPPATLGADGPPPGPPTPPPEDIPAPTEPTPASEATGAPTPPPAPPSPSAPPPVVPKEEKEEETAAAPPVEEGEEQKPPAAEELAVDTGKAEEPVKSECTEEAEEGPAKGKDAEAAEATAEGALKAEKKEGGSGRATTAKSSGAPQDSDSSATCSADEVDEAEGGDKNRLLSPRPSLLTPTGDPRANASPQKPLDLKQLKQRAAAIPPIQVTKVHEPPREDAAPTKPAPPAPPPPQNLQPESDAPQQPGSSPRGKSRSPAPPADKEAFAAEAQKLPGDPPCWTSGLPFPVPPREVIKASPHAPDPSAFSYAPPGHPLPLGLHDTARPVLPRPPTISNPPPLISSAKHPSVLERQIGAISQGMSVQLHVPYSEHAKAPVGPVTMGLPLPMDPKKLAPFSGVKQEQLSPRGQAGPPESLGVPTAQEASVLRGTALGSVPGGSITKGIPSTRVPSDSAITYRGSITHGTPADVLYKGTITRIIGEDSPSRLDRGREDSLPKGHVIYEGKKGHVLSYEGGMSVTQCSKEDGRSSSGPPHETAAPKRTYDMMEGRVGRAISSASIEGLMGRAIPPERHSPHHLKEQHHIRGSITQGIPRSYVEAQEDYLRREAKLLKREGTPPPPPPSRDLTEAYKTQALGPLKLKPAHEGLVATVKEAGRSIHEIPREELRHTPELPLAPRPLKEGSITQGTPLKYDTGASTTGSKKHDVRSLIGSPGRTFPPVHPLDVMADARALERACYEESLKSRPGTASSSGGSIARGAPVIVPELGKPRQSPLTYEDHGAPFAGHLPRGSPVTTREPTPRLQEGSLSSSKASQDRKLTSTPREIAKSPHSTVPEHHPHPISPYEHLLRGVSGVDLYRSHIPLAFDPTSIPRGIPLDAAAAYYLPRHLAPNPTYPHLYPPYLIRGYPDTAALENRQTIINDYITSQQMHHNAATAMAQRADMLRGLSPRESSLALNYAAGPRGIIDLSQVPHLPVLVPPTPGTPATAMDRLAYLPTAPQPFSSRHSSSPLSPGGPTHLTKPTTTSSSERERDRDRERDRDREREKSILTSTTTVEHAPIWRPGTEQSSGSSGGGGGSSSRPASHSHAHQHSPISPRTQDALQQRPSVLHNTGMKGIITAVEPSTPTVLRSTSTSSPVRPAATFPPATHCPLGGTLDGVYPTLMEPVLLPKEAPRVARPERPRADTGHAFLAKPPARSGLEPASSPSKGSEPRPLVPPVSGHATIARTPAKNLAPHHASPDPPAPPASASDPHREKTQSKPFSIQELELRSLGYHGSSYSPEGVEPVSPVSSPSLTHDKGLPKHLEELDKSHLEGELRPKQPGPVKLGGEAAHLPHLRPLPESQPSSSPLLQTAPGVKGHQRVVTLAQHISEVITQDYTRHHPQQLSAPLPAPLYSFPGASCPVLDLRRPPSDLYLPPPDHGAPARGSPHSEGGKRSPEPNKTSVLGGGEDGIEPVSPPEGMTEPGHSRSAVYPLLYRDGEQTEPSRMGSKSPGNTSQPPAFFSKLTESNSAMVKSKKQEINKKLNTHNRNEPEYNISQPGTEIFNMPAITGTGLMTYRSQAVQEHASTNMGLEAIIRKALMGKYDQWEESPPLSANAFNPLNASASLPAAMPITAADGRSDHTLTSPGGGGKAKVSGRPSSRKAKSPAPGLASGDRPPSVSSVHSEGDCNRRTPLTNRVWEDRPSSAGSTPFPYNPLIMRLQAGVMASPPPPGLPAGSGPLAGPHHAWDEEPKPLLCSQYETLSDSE
# Chain of Phospholipase A2 (P04054 whole entry): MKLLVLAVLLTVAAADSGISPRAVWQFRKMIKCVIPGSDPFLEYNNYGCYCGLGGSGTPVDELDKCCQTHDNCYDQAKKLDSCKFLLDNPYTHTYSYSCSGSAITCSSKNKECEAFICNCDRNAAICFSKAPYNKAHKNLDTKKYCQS
compound,measurement,setting,value
Cc1cccc(NC(=O)N2CCCN(Cc3ccccc3F)C2)c1,IC50,[1],> 150 µM (active)
CNS(=O)(=O)c1ccc2c3c(cccc13)C(=O)N2,AC50,[2],32.6 µM (active)
same,IC50,[3],1.6 µM (active)
Cc1ccc(NC(=O)COc2cc(=O)n(C)c3ccccc23)nc1,EC50,Wee1-like protein kinase,> 49.7 µM (inactive)
same,EC50,[4],> 49.7 µM (inactive)
O=C(O)C1Nc2ccc(Br)cc2C2C=CCC12 (centres undefined),IC50,[5],1.63 µM (active)
same,EC50,[6],9.81 µM (active)
same,IC50,[7],28.7 µM (active)
same,EC50,[8],6.32 µM (active)
same,IC50,[9],> 100 µM (not active)
same,IC50,[10],3.24 µM (active)
same,IC50,[11],12.8 µM (active)
same,AC50,HeLa,106 µM (active)
same,AC50,ORF 73,29.2 µM (active)
same,IC50,Cysteine protease ATG4B,3.94 µM (active)
same,IC50,Phospholipase A2,8.24 µM (active)
same,CC50,Vero,> 40 µM (active)
same,IC50,[12],12.3 µM (active)
Cn1nc(CC(=O)NC2CCCCCCCCCCC2)c2ccccc2c1=O,EC50,[13],65 µM (not active)
Cc1cc(C)n2nc(SCc3nnc(SCc4ccccc4Cl)s3)nc2n1,IC50,[14],9.87 µM (not active)
same,IC50,Hexokinase HKDC1,18.8 µM (active)
CCN1C(=O)/C(=C/N(C(C)=O)c2ccccc2)N(c2ccccc2)C1=S,IC50,Prothrombin,> 50 µM (not active)
same,EC50,[15],18 µM (active)
CN(C)CCN1C(=O)C(O)=C(C(=O)c2cc3ccccc3o2)C1c1cccc(Br)c1 (centres undefined),IC50,[16],> 39.8 µM (not active)
same,EC50,[17],> 79.4 µM (inactive)
same,EC50,[18],> 79.4 µM (not active)
same,EC50,[19],> 79.4 µM (not active)
same,IC50,[20],2.25 µM (active)
same,AC50,Cytochrome P450 2C19,31.6 µM (inconclusive)

# — ChEMBL document CHEMBL1201862, “PubChem BioAssay data set” (2004)
